In brackets after ≈: the same amount, converted by molar mass.
Columns and labels:
[1] = Inhibition of HIV-1 BH10 reverse transcriptase using poly(rA)/oligo(dT)15 as substrate after 60 mins by plate reader analysis; parameters: species or system Human immunodeficiency virus type 1 BH10
[2] = Permeability from apical to basolateral side of human Caco2 cells; assay type: ADME, cell-based; conditions: Caco-2, read-out: permeability
[3] = Clearance in human liver microsomes at 1 uM by LC-MS/MS analysis relative to hepatic blood flow; assay type: ADME, Microsome; conditions: read-out: CLH
[4] = tested on: Human immunodeficiency virus 1; assay: Antiviral activity against wild type HIV1-infected human C8166 cells after 1.5 hrs by luciferase reporter gene assay; assay type: functional, organism-based; conditions: Human immunodeficiency virus 1, C8166, 1.5 h
[5] = Cytotoxicity against human C8166-LTR-Luc cells assessed as inhibition of cell viability at > 3.6 uM after 3 days by MTT assay; assay type: cell-based; conditions: read-out: INH
[6] = Cytotoxicity against human C8166-LTR-Luc cells after 3 days by MTT assay; assay type: cell-based
[7] = tested on: Human immunodeficiency virus type 1 BH10; assay: Inhibition of HIV-1 BH10 reverse transcriptase using poly(rA)/oligo(dT)15 as substrate at > 685 nM after 60 mins by plate reader analysis
[8] = Solubility of the compound in phosphate buffer at pH 6.8 after 24 hrs at 25 degC by LC-MS analysis; assay type: physicochemical
[9] = Solubility of the compound in phosphate buffer at pH 2.0 after 24 hrs at 25 degC by LC-MS analysis; assay type: physicochemical
[10] = Lipophilicity, log D of the compound in n-octanol buffer at 0.5 mg after 2 to 24 hrs by LC-MS analysis; assay type: physicochemical
[11] = tested on: Human immunodeficiency virus type 1 BH10; assay: Inhibition of HIV-1 BH10 reverse transcriptase using poly(rA)/oligo(dT)15 as substrate at > 1100 nM after 60 mins by plate reader analysis
[12] = tested on: Human immunodeficiency virus type 1 BH10; assay: Inhibition of HIV-1 BH10 reverse transcriptase using poly(rA)/oligo(dT)15 as substrate at > 365 nM after 60 mins by plate reader analysis
[13] = Clearance in rat liver microsomes at 1 uM by LC-MS/MS analysis relative to hepatic blood flow; assay type: ADME, Microsome; conditions: read-out: CLH
[14] = tested on: Human immunodeficiency virus type 1 BH10; assay: Inhibition of HIV-1 BH10 reverse transcriptase using poly(rA)/oligo(dT)15 as substrate at > 4700 nM after 60 mins by plate reader analysis

Structure (SMILES) | IC50 [1] [nM] | Papp A→B [2] [×10⁻⁶ cm/s] | hepatic extraction ratio at 1 µM [3] | EC50 [4] [nM] | CC50 at 72 h [6] [nM] | further results
CC(C)Cn1c(=O)nc(-c2ccccc2)c2oc3ccc(-c4ccc(CN(C)C)cc4)cc3c21 | 655 | – | – | – | – | –
COCCCn1c(=O)nc(-c2ccc(N3CCN(CCOC)CC3)nc2)c2oc3ccc(Cl)cc3c21 | 8 | 12 | 0.78 | 56 | – | –
COCCCn1c(=O)nc(-c2ccc(N3CCN(C4CC4)CC3)cc2)c2oc3ccc(Cl)cc3c21 | 13 | 8.9 | 0.52 | 290 | > 3600 | cytotoxicity at 72 h [5]: 20%
CCCn1c(=O)nc(-c2ccccc2)c2oc3ccc(-c4ccc(CN(C)C)cc4)cc3c21 | > 685 | – | – | – | – | inhibition [7]: 45%
CCCCCn1c(=O)nc(-c2ccc(NC)nc2)c2oc3ccc(-c4cnn(C)c4)cc3c21 | 2 | 9.8 | 0.81 | 18 | 4000 | solubility at 24 h [8]: 0.27 µg/mL (≈ 0.61 µM); solubility at 24 h [9]: > 1000 µg/mL; logD [10]: 4.7
CCCCn1c(=O)nc(-c2ccccc2)c2oc3ccc(-c4ccc(CN(C)C)cc4)cc3c21 | 42 | – | – | – | – | –
CN(C)Cc1ccc(-c2ccc3oc4c(-c5ccccc5)nc(=O)n(C)c4c3c2)cc1 | 645 | – | – | – | – | –
COCCCCn1c(=O)nc(-c2ccccc2)c2oc3ccc(-c4ccc(CN(C)C)cc4)cc3c21 | 86 | – | – | – | – | –
COCCn1c(=O)nc(-c2ccccc2)c2oc3ccc(-c4ccc(CN(C)C)cc4)cc3c21 | 2330 | – | – | – | – | –
CNc1ccc(-c2nc(=O)n(CC[C@@H]3CCCO3)c3c2oc2ncc(-c4cnn(C)c4)cc23)cn1 | – | – | – | – | – | solubility at 24 h [8]: > 928 µg/mL; solubility at 24 h [9]: > 844 µg/mL
CCNCC(=O)Nc1ccc(-c2nc(=O)n(CCCOC)c3c2oc2ccc(Cl)cc23)cc1 | 2.8 | < 0.1 | 0.46 | 33 | > 8600 | –
CC(C)CCCn1c(=O)nc(-c2ccccc2)c2oc3ccc(-c4ccc(CN(C)C)cc4)cc3c21 | 55 | – | – | – | – | –
CCn1c(=O)nc(-c2ccccc2)c2oc3ccc(-c4ccc(CN(C)C)cc4)cc3c21 | 890 | – | – | – | – | –
CCOC(=O)CCCn1c(=O)nc(-c2ccccc2)c2oc3ccc(-c4ccc(CN(C)C)cc4)cc3c21 | > 1100 | – | – | – | – | inhibition [11]: 14%
CN(C)Cc1ccc(-c2ccc3oc4c(-c5ccccc5)nc(=O)n(CCCc5ccccc5)c4c3c2)cc1 | > 365 | – | – | – | – | inhibition [12]: 25%
CCNCC(=O)Nc1ccc(-c2nc(=O)n(CCOC)c3c2oc2ccc(-c4ccc5c(c4)CCN(C)C5)cc23)cc1 | 4 | < 0.1 | 0.29 | 30 | 4100 | hepatic extraction ratio at 1 µM [13]: 0.11
COC[C@@H](C)Cn1c(=O)nc(-c2ccccc2)c2oc3ccc(-c4ccc(CN(C)C)cc4)cc3c21 | 635 | – | – | – | – | –

Structure (SMILES) | IC50 [1] [nM] | Papp A→B [2] [×10⁻⁶ cm/s] | hepatic extraction ratio at 1 µM [3] | EC50 [4] [nM] | CC50 at 72 h [6] [nM] | further results
Cc1ccc(-n2c(=O)nc(-c3ccccc3)c3oc4ccc(-c5ccc(CN(C)C)cc5)cc4c32)cc1C#N | 7.3 | – | – | – | – | –
COCCCn1c(=O)nc(-c2ccc(N3CCN(C(C)C)CC3)cc2)c2oc3ccc(Cl)cc3c21 | 9.1 | 2.7 | 0.51 | 35 | 2300 | –
COCCCn1c(=O)nc(-c2ccc(N3CCNCC3)cc2)c2oc3ccc(Cl)cc3c21 | 1.7 | 0.3 | 0.28 | 25 | 2700 | –
COC[C@H](C)Cn1c(=O)nc(-c2ccccc2)c2oc3ccc(-c4ccc(CN(C)C)cc4)cc3c21 | 195 | – | – | – | – | –
CN(C)Cc1ccc(-c2ccc3oc4c(-c5ccccc5)nc(=O)n(-c5ccc([N+](=O)[O-])cc5)c4c3c2)cc1 | 1.7 | – | – | – | – | –
COCCCn1c(=O)nc(-c2ccc(N3CCN(C(C)C)CC3)nc2)c2oc3ccc(Cl)cc3c21 | 3 | 2.6 | 0.59 | 37 | > 3200 | –
CCCCCn1c(=O)nc(-c2ccccc2)c2oc3ccc(-c4ccc(CN(C)C)cc4)cc3c21 | 27 | – | – | – | – | –
CNc1ccc(-c2nc(=O)n(CC[C@H]3CCCO3)c3c2oc2ncc(-c4cnn(C)c4)cc23)cn1 | – | – | – | – | – | solubility at 24 h [8]: 1.2 µg/mL (≈ 2.54 µM); solubility at 24 h [9]: > 871 µg/mL
CN(C)Cc1ccc(-c2ccc3oc4c(-c5ccccc5)nc(=O)n(-c5ccccc5)c4c3c2)cc1 | 245 | – | – | – | – | –
COCCCn1c(=O)nc(-c2ccccc2)c2oc3ccc(-c4ccc(CN(C)C)cc4)cc3c21 | 39 | – | – | – | – | –
COCCCn1c(=O)nc(-c2ccc(N3CCN(C)CC3)nc2)c2oc3ccc(-c4cnn(C)c4)cc3c21 | 3 | 0.4 | 0.67 | 6 | > 21700 | solubility at 24 h [8]: > 1000 µg/mL; solubility at 24 h [9]: > 1000 µg/mL; logD [10]: 3
CN(C)Cc1ccc(-c2ccc3oc4c(-c5ccccc5)nc(=O)n(CCCC(=O)O)c4c3c2)cc1 | > 4700 | – | – | – | – | inhibition [14]: 46%
CNc1ccc(-c2nc(=O)n(CCCOC)c3c2oc2ccc(-c4cnn(C)c4)cc23)cn1 | 4 | 1.6 | 0.5 | 148 | > 17000 | solubility at 24 h [8]: > 1000 µg/mL; solubility at 24 h [9]: > 1000 µg/mL
CC(C)n1c(=O)nc(-c2ccccc2)c2oc3ccc(-c4ccc(CN(C)C)cc4)cc3c21 | 800 | – | – | – | – | –
CNc1ccc(-c2nc(=O)n(CCC3CCCO3)c3c2oc2ccc(-c4cnn(C)c4)cc23)cn1 (racemic) | 1.5 | 3.1 | 0.61 | 13 | 3800 | solubility at 24 h [8]: > 984 µg/mL; solubility at 24 h [9]: > 1000 µg/mL; logD [10]: 3.4
CC(C)CCn1c(=O)nc(-c2ccccc2)c2oc3ccc(-c4ccc(CN(C)C)cc4)cc3c21 | 190 | – | – | – | – | –
COCCCn1c(=O)nc(-c2ccc(N3CCN(CCOC)CC3)cc2)c2oc3ccc(Cl)cc3c21 | 10 | 8 | 0.61 | 130 | > 4200 | –

From ChEMBL document CHEMBL2380228, “Nucleotide competing reverse transcriptase inhibitors: discovery of a series of non-basic benzofurano[3,2-d]pyrimidin-2-one derived inhibitors” (Bioorg Med Chem Lett, 2013)
